From patent US20030165475A1, “Non-lethal methods for conditioning a recipient for bone marrow transplantation” (priority 1993, published 2003)
Several values for one entry are separate records, joined by “and”; a condition that tells them apart may be missing. Identical values can stand only once. Like-named read-outs stand apart in the source and are kept apart here.

Columns and labels:
B10 mice [1] = format: in vivo, mouse
Description: Briefly, peripheral blood was collected into heparinized plastic serum vials. […] (400g×20 minutes). […] Lymphocytes were stained for class I antigens with anti-H-2^b-FITC (Pharmingen; San Diego, Calif.), anti-H-2^k-FITC (Pharmingen), and anti-H-2^d-FITC (Pharmingen) monoclonal antibodies (Mab) for 45 minutes at 4° C. Lineage typing was performed by two color flow cytometry using anti-B-cell (B220-FITC, Pharmingen), anti-T cell (αβ-TCR-PE, CD4-FITC, CD8-PE, Pharmingen), anti-natural killer cell (NK1.1-PE, Pharmingen), anti-granulocyte (GR-1-FITC, Pharmingen), and anti-monocyte/macrophage (MAC-1-FITC, Boehringer Mannheim; Indianapolis, Id.) Mab. […] Analyses were performed using forward and side scatter characteristics for the lymphoid and myeloid gates.
To examine whether ALG would enhance the engraftment of allogeneic bone marrow in the established radiation-based model, recipient B10 mice received one of three conditioning approaches prior to transplantation with 40×10^6 or 15×10^6 BALB/c bone marrow cells: 70 mg/kg i.v. ALG given three,days prior to bone marrow transplantation (Group 1); 5Gy of TBI on the day of transplantation (Group 2); or both ALG and TBI as administered in groups 1 and 2 (Group 3). The timing of ALG was chosen to assure maximum immunosuppression at the time of allogeneic bone marrow infusion (Wood et al., 1971, Trans Proc 3(l):676). As in previous analysis, recipients were peripheral blood leukocyte (PBL)-typed for evidence of allogeneic engraftment 2 months following bone marrow transplantation.
To examine the influence of donor cell number on the ability of ALG and TBI to enhance alloengraftment, dose-titration studies were performed in which the above established radiation plus ALG conditioning were utilized. Recipients were conditioned as above prior to receiving 40×10^6, 15×10^6, or 5×10^6 BALB/c bone marrow cells.
Animals were PBL typed 2 months following reconstitution.
To examine the influence of timing of radiation on the engraftment of allogeneic bone marrow, recipient B10 mice were irradiated with 5Gy TBI one week prior to transplantation with 40×10^6 BALB/c allogeneic bone marrow cells.
B10 mice were treated with ALG at 2 mg/mouse i.v. at day −3 before bone marrow transplantation.

B10 mice [2] = assay: Glucose phosphate isomerase-1 (GPI-1) typing of platelets and erythrocytes in mixed allogeneic chimeras; format: in vivo, mouse; conditions: 5 Gy TBI-based regimen, individual animals, 2 months
Description: Peripheral blood (0.9 ml) was collected into heparinized microcentrifuge vials. The blood was spun for four seconds at the maximal setting (14,000 rpm) of an Eppendorf microcentrifuge (Beckman #5415). This setting was chosen through an optimization strategy in which force and times were varied as a function of retrieved platelet number. This duration included the acceleration phase, which is incomplete when power is curtailed at the four second mark. After this, the samples were allowed to slow to a halt without braking. Platelet-rich plasma was then carefully aspirated with a disposable polyethylene pipette, avoiding any disturbance of the buffy coat. Triplicate platelet counts were obtained using a Coulter Model ZB1 counter (Hialeah, Fla.), and the average (variation 5%) calculated. […]
Typing of red blood cell (RBC) and platelet phenotypes was performed using the GPI-1 assay (Ildstad, et al., 1991, J Exp Med 174:467). The precipitation pattern for BALB/c mouse and B10 mouse were performed as controls and determined to be totally disparate. […] Percentages were determined by comparison with the positive control. […] In titrations performed to determine the sensitivity of this assay, as low as 2% of BALB/c RBC titrated into normal B10RBC could be reliably detected (Ildstad, et al., 1991, J Exp Med 174:467). […]

baboons = system: baboons
Description: In addition-to TBI, TLI was also tested in conditioning recipients for bone marrow transplantation. As a single dose, TLI was simply a modified form of TBI in that the method of delivery was the same, except that only certain parts of the recipient's body was exposed to the irradiation. […] In the following study, baboons were treated with a single dose of 7.5 Gy of TLI at day 0 followed by transfer of allogeneic baboon bone marrow cells with at least one MHC disparity. […] Xenogeneic transplantation with human cells was also performed in baboons conditioned with TLI.

baboon = conditions: CyP day -3, -2, -1 + 9.5 Gy TLI day 0
B10 mice [3] = conditions: for NO. OF ANIMALS ENGRAFTED: 300 cGy
Description: Recipients were characterized for donor cell engraftment using flow cytometry (FACS II, Becton Dickinson; Mountain View, Calif.) to determine the presence of peripheral blood lymphocytes bearing H-2^b, H-2^k, and H-2^d encoded antigens as described (Jeffries et al., 1985, J Exp Med 117:127).
Briefly, peripheral blood was collected through tail bleeding into heparinized plastic serum vials. 2001 μl of Medium 199 (Gibco Laboratories; Grand Island, N.Y.) were added to each vial. After thorough mixing, the suspension was layered over 1.5 ml of room temperature Lymphocyte Separation Medium (LSM) (Organon Teknika; Durham, N.C.) and centrifuged at 37° C. (400g×20 minutes). The buffy coat layer was aspirated from the Medium 199-LSM interface and washed with medium. Lymphocytes were stained with fluorescein-conjugated monoclonal antibodies for donor- and host-specific class I antibodies H2K^b (AF6-88.5), H2K^d (SF1-1.1), and H2K^k (AF3-12.1) (Pharmingen) conjugated with fluorescein and lineage markers conjugated with PE α β-TCR (H57-597), CD4 (L3T4), CD8 (Ly2), NK1.1 (PK136), and CD45R/B220 (RA3-603) (Pharmingen) and MAC-1 (M1/70) (Boehringer Mannheim, Indianapolis, Ind.) for 45 minutes at 4° C.

SMILES: O=P1(N(CCCl)CCCl)NCCCO1 (stereo not shown) [CyP, cyclophosphamide]
- engraftment of allogeneic bone marrow (B10 mice [1]; 5Gy TBI + CyP 200 mg/kg i.p. 2 days later, 40 × 10^6 B10.BR or BALB/c → B10, 2 months): nearly all recipients
- degree of donor chimerism (B10 mice [1]; 5Gy TBI + CyP 200 mg/kg i.p. 2 days later, all chimeras): > 90%
- recipient mice engrafted (B10 mice [1]; 5Gy TBI and CyP, regardless of donor strain or CyP before or shortly after TBI (n=15)): ~75%
- % BALB/c lymphoid cells (B10 mice [1]; 5 Gy TBI-based regimen, BALB/c → B10, individual animals, flow cytometry, 2 months): 99% and 98% and 91% and 92%
- engraftment (B10 mice [1]; CyP 200 mg/kg i.p. alone, no TBI): failed to engraft
- allogeneic donor chimerism (B10 mice [1]; chimeras after 5Gy TBI and CyP): ≥ 90%
- % BALB/c RBC (B10 mice [2]): 100%
- % BALB/c platelets (B10 mice [2]): 71% and 78% and 69% and 31%
- treated animals with stable donor cell engraftment (baboons; 7.5 Gy TLI + single dose CyP 50 mg/kg at day +2): about 50%
- duration of stable engraftment (baboons; 7.5 Gy TLI + two doses of CyP): ≥ 36 weeks
- GVHD / morbidity (baboon): no GVHD or significant morbidity
- chimerism, human cells (baboon; two months after transplantation): 15%
- recipients engrafted (B10 mice [3]; 50 mg/kg CyP or more on day 2 with ALG plus 300 cGy TBI): more than 85%
- NO. OF ANIMALS ENGRAFTED (B10 mice [3]; CyP 50 mg/kg day 2, 1 MG ALG): 2/2
- NO. OF ANIMALS ENGRAFTED (B10 mice [3]; CyP 50 mg/kg day 2, 2 MG ALG): 1/1
- NO. OF ANIMALS ENGRAFTED (B10 mice [3]; CyP 50 mg/kg day 2, TOTAL): 3/3
- NO. OF ANIMALS ENGRAFTED (B10 mice [3]; CyP 100 mg/kg day 2, 1 MG ALG): 2/2
- NO. OF ANIMALS ENGRAFTED (B10 mice [3]; CyP 100 mg/kg day 2, 2 MG ALG): 2/2
- NO. OF ANIMALS ENGRAFTED (B10 mice [3]; CyP 100 mg/kg day 2, TOTAL): 4/4
- NO. OF ANIMALS ENGRAFTED (B10 mice [3]; CyP 150 mg/kg day 2, 1 MG ALG): 3/4
- NO. OF ANIMALS ENGRAFTED (B10 mice [3]; CyP 150 mg/kg day 2, 2 MG ALG): 2/2
- NO. OF ANIMALS ENGRAFTED (B10 mice [3]; CyP 150 mg/kg day 2, TOTAL): 5/6
- NO. OF ANIMALS ENGRAFTED (B10 mice [3]; CyP 200 mg/kg day 2, 1 MG ALG): 5/6
- NO. OF ANIMALS ENGRAFTED (B10 mice [3]; CyP 200 mg/kg day 2, 2 MG ALG): 7/8
- NO. OF ANIMALS ENGRAFTED (B10 mice [3]; CyP 200 mg/kg day 2, TOTAL): 12/14
